From US7005416B2, “Dalfopristine/quinupristine combinations with cefpirome” (Jones Pharma Incorporated, priority 2000, dated 2006)
In brackets after ≈: the same amount, converted by molar mass.

What was measured:
[1] = tested on: MRSA strain AW7 (C-MLSB-resistant); test: MIC determination on agar plates, MRSA strain AW7; assay type: cell-based; settings: Staphylococcus aureus, read-out: minimum inhibitory concentration (MIC)
Procedure: (§1) The microorganisms tested were two clinical isolates of C-MLSB-resistant MRSA: strains AW7 and P8, previously characterized in vitro, and in vivo in rat experimental endocarditis.
(§2) The study in vitro and the determination of the MICs (minimum inhibitory concentrations) was carried out using cultures on agar plates (Antimicrob. Agents Chemother., 39, 1419–1424 (1995), the disclosure of which is incorporated by reference herein).

[2] = tested on: MRSA strain P8 (C-MLSB-resistant); test: MIC determination on agar plates, MRSA strain P8; assay type: cell-based; settings: Staphylococcus aureus, read-out: minimum inhibitory concentration (MIC)
Procedure: as §1, §2

MRSA strain AW7 = test: Growth of bacterial populations on cefpirome-containing plates, with or without subinhibitory dalfopristine/quinupristine, strain AW7; assay type: cell-based, Staphylococcus aureus
Procedure: as §2
(§3) Bacterial populations of the MRSA strains Ab 7 and P8 can grow on plates containing up to 60 mg/l of cefpirome.

MRSA strain P8 = test: Growth of bacterial populations on cefpirome-containing plates, with or without subinhibitory dalfopristine/quinupristine, strain P8; assay type: cell-based, Staphylococcus aureus
Procedure: as §2, §3

in vivo = test: in vivo; set-up: species or system rats; settings: Wistar, rat, iv
Procedure: The treatment was started 12 hours after the bacterial infection, and was continued for 5 days. The antibiotics were administered by means of a permanent venous catheter with a programmable pump (Pump 44; Harvard Apparatus Inc.) according to the method described in Antimicrobial Agents Chemother., 39, 1419–1424 (1995), the disclosure of which is incorporated by reference herein. The treatments simulated kinetics in humans, which were produced by intravenous administration of 7 mg/kg of quinupristine/dalfopristine every 12 hours, or by intravenous administration of 2 g of cefpirome every 12 hours.
Prior to the treatment experiments, the setting up of the simulation of the human kinetics of the quinupristine/dalfopristine combination with cefpirome in rats was performed on animals that were catheterized, but not infected. In these preliminary experiments, each point of the pharmacokinetics curve is the mean (±standard deviation) of the concentrations measured in 6 different rats. The concentrations of product in the serum were measured in a bioassay (using Micrococcus luteus for quinupristine/dalfopristine, and Bacillus subtilis ATCC 6633 for cefpirome).
These values are in accordance with the therapeutic levels observed in humans for these active principles. […]

[3] = tested on: C-MLSB-resistant MRSA strains; test: Rat experimental endocarditis resulting from C-MLSB-resistant MRSA strains (overall statement); assay type: in vivo, rats; settings: monotherapy
Procedure: Synercid® (quinupristine/dalfopristine) and cefpirome were tested separately in rats, on experimental endocarditis resulting from C-MLSB-resistant MRSA strains.
(§4) For the experimental endocarditis study, Wistar female rats weighing 200 g with aortic vegetation (produced according to the method described by Heraief et al., Infect Immunol., 37,127–31 (1982), the disclosure of which is incorporated by reference herein) were infected with an inoculum of 10^5 CFU/ml of the organism to be tested, which corresponds to 10 times the minimum inoculum to produce endocarditis in at least 90% of the untreated controls (where CFU refers to colony forming units).
(§5) The treatment was started 12 hours after the bacterial infection, and was continued for 5 days. […]
(§6) The control rats were sacrificed at the start of the treatment and the treated rats were sacrificed 24 hours after the final antibiotic administration. The bacterial density in the vegetations was determined after dissecting the vegetations under sterile conditions, weighing, homogenizing in 1 ml of saline solution, and then diluting the solution (series of dilutions) before placing it onto plates for counting of the colonies. The number of colonies growing on the plates was determined after 48 hours of incubation at 35° C. The bacterial densities in the vegetations were expressed as log10 CFU/g of tissue. […]

MRSA AW7 = test: Rat experimental aortic endocarditis, MRSA AW7; assay type: in vivo, Wistar female rats
From the text: as §4, §5, §6

MRSA P8 = test: Rat experimental aortic endocarditis, MRSA P8; assay type: in vivo, Wistar female rats; settings: MRSA P8, 5 days treatment, FIG. 2; monotherapy P>0.05, combination P<0.05
From the text: as §4, §5, §6

CO/N=C(\C(=O)N[C@@H]1C(=O)N2C(C(=O)[O-])=C(C[n+]3cccc4c3CCC4)CS[C@H]12)c1csc(N)n1 [cefpirome]
MIC [1]: 4 µg/mL (≈ 7.77 µM)
MIC [2]: 2 µg/mL (≈ 3.89 µM)
cefpirome concentration in plates up to which bacterial populations can grow (MRSA strain AW7; MRSA strain AW7 (printed Ab 7), cefpirome alone): up to 60 mg/l
cefpirome concentration in plates at which the strain did not grow (MRSA strain AW7; MRSA strain AW7, plates with subinhibitory (¼ MIC) dalfopristine/quinupristine combination added): ≥ 5 mg/L
cefpirome concentration in plates up to which bacterial populations can grow (MRSA strain P8; MRSA strain P8, cefpirome alone): up to 60 mg/l
cefpirome concentration in plates at which the strain did not grow (MRSA strain P8; MRSA strain P8, plates with subinhibitory (¼ MIC) dalfopristine/quinupristine combination added): ≥ 15 mg/L
concentration at 5 min (in vivo): 161 ± 19.7 µg/mL
concentration at 12 h (in vivo): 2.2 ± 1.4 µg/mL
effectiveness in vivo [3]: Neither Synercid® nor cefpirome showed any effectiveness in vivo in monotherapy
effectiveness on aortic endocarditis (statistical significance) (MRSA AW7; MRSA AW7, 5 days treatment, FIG. 2, monotherapy P>0.05, combination P<0.05): neither quinupristine/dalfopristine, nor cefpirome, in monotherapy were significantly effective
log10 CFU/g of vegetation (MRSA AW7; MRSA AW7, in 38% of the cases): >8.7 in 38% log10 CFU/g
effectiveness on aortic endocarditis (statistical significance) (MRSA P8): neither quinupristine/dalfopristine, nor cefpirome, in monotherapy were significantly effective
